Assay results published in patent US6090834A, “Substituted oxazoles for the treatment of inflammation” (G.D. Searle & Co., priority 1998, dated 2000).

Experiments:
COX-2 = COX-2 activity in vitro (PGE2 formed, ELISA); type: biochemical, human or murine; settings: recombinant enzyme, arachidonic acid 10 μM, pH 8.0; read-out: COX II ID50
Method: (§1) Evaluation of COX I and COX II activity in vitro
(§2) The COX-2 inhibition activity of the compounds of this invention illustrated in the Examples was determined by the following methods. a. Preparation of recombinant COX baculoviruses
(§3) Recombinant COX-1 and COX-2 were prepared as described by Gierse et al, [J. Biochem., 305, 479-84 (1995)]. A 2.0 kb fragment containing the coding region of either human or murine COX-1 or human or murine COX-2 was cloned into a BamH1 site of the baculovirus transfer vector pVL1393 (Invitrogen) to generate the baculovirus transfer vectors for COX-1 and COX-2 in a manner similar to the method of D. R. O'Reilly et al (Baculovirus Expression Vectors: A Laboratory Manual (1992)). Recombinant baculoviruses were isolated by transfecting 4 μg of baculovirus transfer vector DNA into SF9 insect cells (2×10^8) along with 200 ng of linearized baculovirus plasmid DNA by the calcium phosphate method. See M. D. Summers and G. E. Smith, A Manual of Methods for Baculovirus vectors and Insect Cell Culture Procedures, Texas Agric. Exp. Station Bull. 1555 (1987). Recombinant viruses were purified by three rounds of plaque purification and high titer (10^7 -10^8 pfu/ml) stocks of virus were prepared. For large scale production, SF9 insect cells were infected in 10 liter fermentors (0.5×10^6 /ml) with the recombinant baculovirus stock such that the multiplicity of infection was 0.1. After 72 hours the cells were centrifuged and the cell pellet homogenized in Tris/Sucrose (50 mM: 25%, pH 8.0) containing 1% 3-[(3-cholamidopropyl)dimethylammonio]-1-propanesulfonate (CHAPS). The homogenate was centrifuged at 10,000×G for 30 minutes, and the resultant supernatant was stored at -80° C. before being assayed for COX activity. […]
(§4) b. Assay for COX-1 and COX-2 activity
(§5) COX activity was assayed as PGE2 formed/μg protein/time using an ELISA to detect the prostaglandin released. CHAPS-solubilized insect cell membranes containing the appropriate COX enzyme were incubated in a potassium phosphate buffer (50 mM, pH 8.0) containing epinephrine, phenol, and heme with the addition of arachidonic acid (10 μM). Compounds were pre-incubated with the enzyme for 10-20 minutes prior to the addition of arachidonic acid. Any reaction between the arachidonic acid and the enzyme was stopped after ten minutes at 37° C./room temperature by transferring 40 μl of reaction mix into 160 μl ELISA buffer and 25 μM indomethacin. The PGE2 formed was measured by standard ELISA technology (Cayman Chemical).

COX-1 = COX-1 activity in vitro (PGE2 formed, ELISA); type: biochemical, human or murine; settings: recombinant enzyme, arachidonic acid 10 μM, pH 8.0; read-out: COX-1 ID50
Method: as §1, §2, §3, §4, §5

Compound | IC50 (COX-2) [µM] | IC50 (COX-1) [µM]
NS(=O)(=O)c1ccc(-c2oc(SCC(=O)O)nc2-c2ccccc2)cc1 [Example 48, 5-(4-aminosulfonylphenyl)-4-phenyl-2-oxazolemercaptoacetic acid] | 2.1 | 0.3
NS(=O)(=O)c1ccc(-c2nc(CC(=O)O)oc2-c2ccc(F)c(F)c2)cc1 [Example 41] | 60.7 | > 100
NS(=O)(=O)c1ccc(-c2oc(Oc3cccc(Cl)c3)nc2-c2ccccc2)cc1 [Example 47] | < 0.1 | 1
CS(=O)(=O)c1ccc(-c2oc(-c3ccccc3)nc2C2CCCCC2)cc1 [Example 25, 4-(cyclohexyl)-5-[4-(methylsulfonyl)phenyl]-2-phenyloxazole] | 0.5 | > 10
CCOC(=O)C(Cc1ccccc1)c1nc(-c2ccc(F)cc2)c(-c2ccc(S(C)(=O)=O)cc2)o1 (centres unmarked) [Example 33] | 0.05 | 3.1
NS(=O)(=O)c1ccc(-c2oc(C(F)(F)F)nc2-c2ccccc2)cc1 [Example 64, 4-[4-phenyl-2-trifluoromethyl-5-oxazolyl]benzenesulfonamide] | < 0.1 | 1.1
NC(=O)c1nc(-c2ccccc2)c(-c2ccc(S(N)(=O)=O)cc2)o1 [Example 72, 5-(4-aminosulfonylphenyl)-4-phenyl-oxazole-2-carboxamide] | 2.2 | > 100
CCOC(=O)c1cccc(Oc2nc(-c3ccccc3)c(-c3ccc(S(N)(=O)=O)cc3)o2)c1 [Example 57, ethyl 3-[[5-(4-aminosulfonylphenyl)-4-phenyl-2-oxazolyl]oxy]benzoate] | < 0.1 | 3.2
Cc1ccc(-c2nc(C(F)(F)F)oc2-c2ccc(S(C)(=O)=O)cc2)cc1 [Example 68, 4-(4-methylphenyl)-5-(4-methylsulfonylphenyl)-2-trifluoromethyl-oxazole] | < 0.1 | 2
CN(C)c1ccc(-c2nc(C(F)(F)F)oc2-c2ccc(S(N)(=O)=O)cc2)cc1 [Example 65, 4-[4-Dimethylaminophenyl-2-trifluoromethyl-5-oxazolyl]benzenesulfonamide] | < 0.1 | < 0.1
NS(=O)(=O)c1ccc(-c2nc(CC(=O)O)oc2-c2ccc(Cl)cc2)cc1 [Example 37, [4-(4-aminosulfonylphenyl)-5-(4-chlorophenyl)]-2-oxazoleacetic acid] | 7 | 3.4
4-[2-methylsulfinyl)-4-phenyl-5-oxazolyl]benzenesulfonamide [Example 52] |  | 35
NS(=O)(=O)c1ccc(-c2nc(C(F)(F)F)oc2-c2ccc(Cl)cc2)cc1 [Example 59, 4-[5-(4-chlorophenyl)-2-trifluoromethyl-4-oxazolyl]benzenesulfonamide] | < 0.1 | 0.4
NS(=O)(=O)c1ccc(-c2nc(C(Br)C(=O)O)oc2-c2ccc(Cl)cc2)cc1 (centres unmarked) [Example 67] | 0.8 | 33
CN(C)c1nc(-c2ccccc2)c(-c2ccc(S(N)(=O)=O)cc2)o1 [Example 58, 4-[2-(N,N-dimethylamino)-4-phenyl-5-oxazolyl]benzenesulfonamide] | < 0.1 | 31
NS(=O)(=O)c1ccc(-c2oc(CO)nc2-c2ccccc2)cc1 [Example 75, 4-[2-hydroxymethyl-4-phenyl-5-oxazolyl]benzenesulfonamide] | < 0.1 | > 100
NS(=O)(=O)c1ccc(-c2oc(S)nc2-c2ccccc2)cc1 [Example 46, 4-[2-mercapto-4-phenyl-5-oxazolyl]benzenesulfonamide] | 0.5 | 1.7
NS(=O)(=O)c1ccc(-c2ocnc2-c2ccccc2)cc1 [Example 44, 4-[4-phenyl-5-oxazolyl]benzenesulfonamide] | 79 | > 100
NS(=O)(=O)c1ccc(-c2nc(C(F)(F)F)oc2-c2ccc(F)c(F)c2)cc1 [Example 42, 4-[5-(3.4-difluorophenyl)-2-trifluoromethyl-4-oxazolyl]benzenesulfonamide] | < 0.1 | 11.4

Compound | IC50 (COX-2) [µM] | IC50 (COX-1) [µM]
NS(=O)(=O)c1ccc(-c2oc(OCC(F)(F)F)nc2-c2ccccc2)cc1 [Example 49] | < 0.1 | 4.1
CS(=O)(=O)c1ccc(-c2oc(CCC3CCCCC3)nc2-c2ccc(F)cc2)cc1 [Example 32, 2-(2-cyclohexylethyl)-4-(4-fluorophenyl)-5-[4-(methylsulfonyl)phenyl]oxazole] | < 0.1 | 15.9
NS(=O)(=O)c1ccc(-c2oc(CC(=O)O)nc2-c2ccccc2)cc1 [Example 38, [5-(4-aminosulfonylphenyl)-4-phenyl]-2-oxazoleaceticacid] | < 0.1 | 72
CCOC(=O)Cc1nc(-c2ccc(S(N)(=O)=O)cc2)c(-c2ccc(OC)c(F)c2)o1 [Example 34, ethyl [4-(4-aminosulfonylphenyl)-5-(3-fluoro-4-methoxyphenyl)]-2-oxazoleacetate] | < 0.1 | 0.2
NS(=O)(=O)c1ccc(-c2nc(CC(=O)O)oc2-c2ccc(Cl)c(Cl)c2)cc1 [Example 40, [4-(4-aminosulfonylphenyl)-5-(3.4-dichlorophenyl)]-2-oxazoleacetic acid] | < 0.1 | 26
Cc1nc(-c2ccccc2)c(-c2ccc(S(N)(=O)=O)cc2)o1 [Example 51, 4-[2-methyl-4-phenyl-5-oxazolyl]benzenesulfonamide] | < 0.1 | 14
NS(=O)(=O)c1ccc(-c2nc(CC(=O)O)oc2-c2ccc(F)c(Cl)c2)cc1 [Example 39, [4-(4-aminosulfonylphenyl)-5-(3-chloro-4-fluorophenyl)]-2-oxazoleacetic acid] | 79 | > 100
Cc1nc(-c2ccc(S(C)(=O)=O)cc2)c(-c2ccc(F)cc2)o1 [Example 14, 5-(4-Fluorophenyl)-2-methyl-4-[4-(methylsulfonyl)phenyl]oxazole] | > 10 | > 30
CSc1nc(-c2ccccc2)c(-c2ccc(S(N)(=O)=O)cc2)o1 [Example 50, 4-[2-Methylthio-4-phenyl-5-oxazolyl]benzenesulfonamide] | < 0.1 | 7.4
COc1ccc(-c2oc(C)nc2-c2ccc(S(N)(=O)=O)cc2)cc1F [Example 69] | 0.5 | 79
NS(=O)(=O)c1ccc(-c2oc(Cl)nc2-c2ccccc2)cc1 [Example 45, 4-[2-chloro-4-phenyl-5-oxazolyl]benzenesulfonamide] | < 0.1 | 6.5
COc1ccc(-c2oc(CC(=O)O)nc2-c2ccc(S(N)(=O)=O)cc2)cc1F [Example 66, [4-(4-aminosulfonylphenyl)-5-(3-fluoro-4-methoxyphenyl)]-2-oxazoleacetic acid] | 13 | 21
4-[2-(methylsulfonyl)-4-phenyl-5-oxazolyl]benzenesulfonamide [Example 53] | 0.5 | 
COc1c(F)cc(-c2oc(C(F)(F)F)nc2-c2ccc(S(N)(=O)=O)cc2)cc1Br [Example 71, 4-[5-(3-bromo-4-methoxy-5-fluorophenyl)-2-trifluoromethyl-4-oxazolyl]benzenesulfonamide] | 0.1 | 51
COC(=O)CCc1nc(-c2ccc(S(C)(=O)=O)cc2)c(-c2ccc(F)cc2)o1 [Example 15, Methyl 3-[5-(4-fluorophenyl)-4-[4-(methylsulfonyl)phenyl]]-2-oxazolepropanoate] | 0.2 | > 30
CCOC(=O)c1ccccc1Oc1nc(-c2ccccc2)c(-c2ccc(S(N)(=O)=O)cc2)o1 [Example 56, ethyl 2-[[5-(4-aminosulfonylphenyl)-4-phenyl-2-oxazolyl]oxy]benzoate] | < 0.1 | 4.5
NS(=O)(=O)c1ccc(-c2oc(Oc3c(F)c(F)c(F)c(F)c3F)nc2-c2ccccc2)cc1 [Example 54, 4-[2-(2,3,4,5,6-pentafluorophenoxy)-4-phenyl-5-oxazolyl]benzenesulfonamide] | < 0.1 | 3
NS(=O)(=O)c1ccc(-c2oc(CCC(=O)O)nc2-c2ccccc2)cc1 [Example 43, [5-(4-aminosulfonylphenyl)-4-phenyl]-2-oxazolepropionic acid] | 3.1 | 2.3
COCc1nc(-c2ccccc2)c(-c2ccc(S(N)(=O)=O)cc2)o1 [Example 73, 4-[2-methoxymethyl-4-phenyl-oxazolyl]benzenesulfonamide] | < 0.1 | 47.5
